Where “and” joins values, the source holds several entries; their conditions need not be identical. Identical values can stand only once. Like-named read-outs stand apart in the source and are kept apart here.
Key:
[1] = tested on: F. hepatica newly excysted juveniles (NEJs), Italian strain; test: Ex vivo screen against newly excysted juveniles (NEJs), phenotype and motility scoring; format: cell-based, Fasciola hepatica; settings: 10 µM; for Average phenotype of 25 NEJs with 95% CI, 24 hours / Average phenotype of 25 NEJs with 95% CI, 48 hours / Average phenotype of 25 NEJs with 95% CI, 72 hours: ultrastructure score 1 normal to 6 dead or dissolved; for Activity against NEJs (first screen), in words: 72 h co-culture
Method in brief: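 Newly excysted juveniles of the Italian strain of F. hepatica were obtained by excysting metacercariae and exposed ex vivo to test compounds at 10 μM final concentration in 0.1% DMSO. Controls were 0.1% DMSO (negative) and 10 μM TCBZ in 0.1% DMSO (positive). Motility was scored from 1 (good/normal) to 5 (no movement), and ultrastructural phenotype changes were scored with an established matrix.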

[2] = tested on: immature F. hepatica flukes (Italian strain); test: Ex vivo motility assay on immature liver flukes (Italian strain), single concentration and dose response; format: cell-based, Fasciola hepatica; settings: for Average motility of 4 parasites with 95% CI at 24 hour time point: score 1 normal to 5 no movement or death; for Effect on immature fluke motility, in words: by 72 h
Method: The six selected compounds (at 40 µM in 0.4% DMSO) were evaluated on immature flukes (n = 4/condition) at 24, 48 and 72 h (Table S4). The protocol for culturing and scoring (motility) of these life stages have been previously described. Due to restricted numbers of immature worms, a dose response assay was conducted only for MC042. Here, immature worms (n = 2/concentration tested) were screened against descending concentrations of MC042 (40 µM, 13.3 µM and 4.4 µM); motility scores were recorded at 24, 48 and 72 h (Table S5). The scoring pattern used is identical to that described for NEJs.

[3] = tested on: Madin–Darby bovine kidney (MDBK) cells; test: MTT cell viability assay on MDBK cells; format: cell-based; settings: MDBK cells, MTT, 24 h exposure; read-out: CC50 with 95% CI on MDBK cells (cytotoxicity)
Method: (§1) MTT cell viability assays were performed on Madin–Darby bovine kidney (MDBK cells) for the five selected hederagenin derivatives (MC014, MC035, MC042, MC055 and MC062) using final concentrations of 100 μM, 75 μM, 50 μM, 25 μM, 10 μM, 5 μM and 1 μM (in 1% DMSO). Negative (1% v/v Triton X-100, Sigma-Aldrich, UK) and positive (1% v/v DMSO or media only) controls were included. The protocol was followed as previously described. Absolute EC50 values were calculated from the corrected absorbance of replicates by non-linear regression, after log transformation of concentrations and data normalization (where DMSO values represents 0% inhibition and TX-100 values represent 100% inhibition) using GrapPad Prism 8.

[4] = tested on: wild strain adult F. hepatica; test: Ex vivo motility assay on adult liver flukes (wild strain); format: cell-based, Fasciola hepatica; settings: 40 µM; for Effect on wild strain adult fluke motility, in words: 72 h; for Average motility of 4 parasites with 95% CI at 72 hour time point: wild strain adult flukes, score 1 good/normal to 6 no movement or dead
Method: Due to the high number of active molecules and a shortage of Italian strain adult liver flukes, the eleven hit compounds were screened for 72 h at 40 µM (in 0.4% DMSO) on wild strain adult F. hepatica (n = 4/condition) of unknown provenance (Table S3). The protocol for culturing and scoring (motility) the activity of these compounds was previously described (1—good/normal; 2—moderate; 3—resting (less than 10 s pulses of body and head), 4—apathetic (less than 2 s pulses of body and head), 5—paralysis and 6–no movement or dead worms). Six compounds were deemed active in these assays and were selected for further screening.

[5] = tested on: adult F. hepatica flukes (Italian strain); test: Ex vivo dose response motility assay on adult liver flukes (Italian strain); format: cell-based, Fasciola hepatica; settings: for Average motility of 3 parasites treated with 4.4 µM, 24 hours / Average motility of 3 parasites treated with 4.4 µM, 48 hours / Average motility of 3 parasites treated with 4.4 µM, 72 hours / Average motility of 3 parasites treated with 13.3 µM, 24 hours / Average motility of 3 parasites treated with 13.3 µM, 48 hours / Average motility of 3 parasites treated with 13.3 µM, 72 hours / Average motility of 3 parasites treated with 40 µM, 24 hours / Average motility of 3 parasites treated with 40 µM, 48 hours / Average motility of 3 parasites treated with 40 µM, 72 hours: adult flukes Italian strain, score 1 to 6; for EC50: adult flukes, motility; for Effect on adult fluke (Italian strain) movement, in words: dose response, MC042 statement at 40 μM after 72 h
Method: The collection, ex vivo culturing and screening of adult liver fluke (Italian strain; n = 3/condition) was previously described. Dose response assays (40 µM, 13.3 µM and 4.4 µM) were conducted for MC014, MC042, MC035, MC055 and MC062 with motility scores recorded at 24, 48 and 72 h (Table S6).

[6] = MTT cell viability assay on MDBK cells; format: cell-based, bovine; settings: bovine, MDBK cells (Madin–Darby bovine kidney); MDBK cells, MTT, 24 h exposure; read-out: CC50 with 95% CI on MDBK cells (cytotoxicity)
Method: as §1

[7] = motility score 1 good/normal to 5 no movement
[8] = 40 µM, 48 h, immature flukes, score 1 to 5
[9] = 40 µM, 72 h, immature flukes, score 1 to 5

SMILES | Average motility of 25 NEJs with 95% CI, 24 hours [1, 7] | Average phenotype of 25 NEJs with 95% CI, 24 hours [1] | Average motility of 25 NEJs with 95% CI, 48 hours [1, 7] | Average phenotype of 25 NEJs with 95% CI, 48 hours [1] | Average phenotype of 25 NEJs with 95% CI, 72 hours ([1]; 72 h) | Activity against NEJs (first screen), in words [1] | Average motility of 4 parasites with 95% CI at 24 hour time point ([2]; 40 µM, 24 h, immature flukes) | Average motility of 4 parasites with 95% CI at 48 hour time point [2, 8] | Average motility of 4 parasites with 95% CI at 72 hour time point [2, 9] | Effect on immature fluke motility, in words ([2]; 40 µM) | Effect on wild strain adult fluke motility, in words [4] | Average motility of 4 parasites with 95% CI at 72 hour time point [4] | Average motility of 3 parasites treated with 4.4 µM, 24 hours ([5]; 24 h) | Average motility of 3 parasites treated with 4.4 µM, 48 hours [5] | Average motility of 3 parasites treated with 4.4 µM, 72 hours ([5]; 72 h) | Average motility of 3 parasites treated with 13.3 µM, 24 hours ([5]; 24 h) | Average motility of 3 parasites treated with 13.3 µM, 48 hours [5] | Average motility of 3 parasites treated with 13.3 µM, 72 hours ([5]; 72 h) | Average motility of 3 parasites treated with 40 µM, 24 hours ([5]; 24 h) | Average motility of 3 parasites treated with 40 µM, 48 hours [5] | other results
CC1(C)CC[C@]2(NC(=O)N3CCNCC3)CC[C@]3(C)C(=CCC4[C@@]5(C)CCC6OC(C)(C)OC[C@@]6(C)C5CC[C@]43C)C2C1 (stereo partly drawn) [MC035, N-((4aR,6aR,6bS,8aS,14bR)-2,2,4a,6a,6b,11,11,14b-Octamethyl-4a,5,6,6a,6b,7,8,9,10,11,12,12a,14,14a, 14b,15,16,16a-octadecahydro-4H-piceno[3,4-d][1,3]dioxin-8a(4bH)-yl)piper-azine-1-carboxamide] | 5.00 (5.0;5.0) | 6.00 (6.0;6.0) | 5.00 (5.0;5.0) | 6.00 (6.0;6.0) | 6.00 (6.0;6.0) | maximal alterations to both phenotype/ultrastructure and motility | 5.00 (5.0;5.0) | 5.00 (5.0;5.0) | 5.00 (5.0;5.0) | paralyzed the assayed immature flukes | partial paralysis | 5.75 (5.2; 6.2) | 1.00 (1.0;1.0) | 1.00 (1.0;1.0) | 1.00 (1.0;1.0) | 1.00 (1.0;1.0) | 1.00 (1.0;1.0) | 3.66 (2.3; 4.9) | 2.33 (1.6;2.9) | 4.33 (3.6;4.9) | CC50 [3]: 79.8 µM; Average motility of 3 parasites treated with 40 µM, 72 hours ([5]; 72 h): 5.00 (3.8;6.1); EC50 ([5]; 72 h, read-out: EC50 with 95% CI on Adult Flukes (motility), 72 hour): 14.3 µM; Effect on adult fluke (Italian strain) movement, in words [5]: Decreased movement
CC1(C)CC[C@]2(NC(=O)N3CCOCC3)CC[C@]3(C)C(=CCC4[C@@]5(C)CC[C@@H]6OC(C)(C)OC[C@@]6(C)C5CC[C@]43C)C2C1 (stereo partly drawn) [MC042, N-((4aR,6aR,6bS,8aS,14bR,16aS)-2,2,4a,6a,6b,11,11,14b-Octamethyl-4a,5,6,6a,6b,7,8,9,10,11,12,12a, 14,14a,14b,15,16,16a-octadecahydro-4H-piceno[3,4-d][1,3]dioxin-8a(4bH)-yl)-morpholine-4-carboxamide] | 5.00 (5.0;5.0) | 6.00 (6.0;6.0) | 5.00 (5.0;5.0) | 6.00 (6.0;6.0) | 6.00 (6.0;6.0) | maximal alterations to both phenotype/ultrastructure and motility | 4.75 (4.2;5.2) | 5.00 (5.0;5.0) | 5.00 (5.0;5.0) | paralyzed the assayed immature flukes | no motility after 72 h | 6.00 (6.0;6.0) | 1.00 (1.0;1.0) | 2.00 (2.0; 2.0) | 3.00 (3.0; 3.0) | 3.66 (3.0;4.3) | 4.00(4.0; 4.0) | 4.00 (4.0; 4.0) | 5.33 (4.6;5.9) | 5.66 (5.0;6.3) | Average motility of 25 NEJs with 95% CI, 72 hours ([1]; 72 h, motility score 1 good/normal to 5 no movement): 5.00 (5.0;5.0); Average motility of 2 parasites treated with 4.4 µM, 24 hours ([2]; 4.4 µM, 24 h, immature flukes, dose response, score 1 to 5): 4.00 (4.0;4.0); Average motility of 2 parasites treated with 4.4 µM, 48 hours ([2]; 4.4 µM, 48 h, immature flukes, dose response, score 1 to 5): 5.00 (5.0; 5.0); Average motility of 2 parasites treated with 4.4 µM, 72 hours ([2]; 4.4 µM, 72 h, immature flukes, dose response, score 1 to 5): 5.00 (5.0; 5.0); Average motility of 2 parasites treated with 13.3 µM, 24 hours ([2]; 13.3 µM, 24 h, immature flukes, dose response, score 1 to 5): 4.00 (4.0;4.0); Average motility of 2 parasites treated with 13.3 µM, 48 hours ([2]; 13.3 µM, 48 h, immature flukes, dose response, score 1 to 5): 5.00 (5.0; 5.0); Average motility of 2 parasites treated with 13.3 µM, 72 hours ([2]; 13.3 µM, 72 h, immature flukes, dose response, score 1 to 5): 5.00 (5.0; 5.0); Average motility of 2 parasites treated with 40 µM, 24 hours ([2]; 40 µM, 24 h, immature flukes, dose response, score 1 to 5): 5.00 (5.0;5.0); Average motility of 2 parasites treated with 40 µM, 48 hours ([2]; 40 µM, 48 h, immature flukes, dose response, score 1 to 5): 5.00 (5.0;5.0); Average motility of 2 parasites treated with 40 µM, 72 hours ([2]; 40 µM, 72 h, immature flukes, dose response, score 1 to 5): 5.00 (5.0,5.0); Selectivity Index (SI) on Immature Flukes SI=CC50/EC50, 24 hour ([2]; CC50 in MDBK cells / EC50 immature flukes, 24 h): 44 and 44.37; EC50 ([2]; Fasciola hepatica, immature flukes, motility, 24 h exposure, read-out: EC50 with 95% CI on Immature Flukes (motility), 24 hour): 1.07 µM; CC50 at 24 h [6]: 47.5 µM; Effect on adult fluke (Italian strain) movement at lower concentrations, in words ([5]; 13.3 μM and 4.4 μM, after 72 h, compared to DMSO 0.4%): impaired movement; Average motility of 3 parasites treated with 40 µM, 72 hours ([5]; 72 h): 5.66 (5.0,6.3); Selectivity Index (SI) on Adult Flukes SI=CC50/EC50, 72 hour ([5]; CC50 in MDBK cells (24 h) / EC50 adult flukes 72 h): 6.64; Selectivity Index (SI) on Adult Flukes SI=CC50/EC50, 24 hour ([5]; CC50 in MDBK cells / EC50 adult flukes, 24 h): 4 and 3.64; EC50 ([5]; Fasciola hepatica, 24 h exposure, read-out: EC50 with 95% CI on Adult Flukes (motility), 24 hour): 13 µM; EC50 ([5]; Fasciola hepatica, 72 h, read-out: EC50 with 95% CI on Adult Flukes (motility), 72 hour): 7.15 µM; Effect on adult fluke (Italian strain) movement, in words [5]: two out of three adult flukes were completely immobilized
